Holding throughout (format): cell-based
Assay [1] concerns the target T1, Peroxisome proliferator-activated receptor alpha (Homo sapiens, UniProt Q07869).
T1 sequence (Q07869 whole entry): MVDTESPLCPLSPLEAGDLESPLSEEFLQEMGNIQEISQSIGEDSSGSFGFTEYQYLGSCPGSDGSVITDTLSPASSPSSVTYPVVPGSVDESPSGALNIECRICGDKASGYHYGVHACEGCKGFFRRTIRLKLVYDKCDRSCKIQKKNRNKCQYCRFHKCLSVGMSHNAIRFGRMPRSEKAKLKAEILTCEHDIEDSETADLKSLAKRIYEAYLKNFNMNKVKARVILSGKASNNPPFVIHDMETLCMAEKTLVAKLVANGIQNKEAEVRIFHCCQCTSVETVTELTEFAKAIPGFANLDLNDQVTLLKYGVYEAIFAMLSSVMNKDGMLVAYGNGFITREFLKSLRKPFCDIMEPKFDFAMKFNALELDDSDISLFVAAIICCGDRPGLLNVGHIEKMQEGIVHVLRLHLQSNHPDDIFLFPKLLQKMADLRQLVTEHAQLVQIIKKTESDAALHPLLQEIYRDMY
Description: Transcriptional activation activity on human Peroxisome proliferator activated receptor alpha expressed in CHO-K1 cells.

Assay [2] deals with Peroxisome proliferator-activated receptor alpha (Homo sapiens, UniProt Q07869, T279M). Kind of assay: Transcriptional activation activity on human T279M-mutant Peroxisome proliferator activated receptor alpha expressed in CHO-K1 cells.
Chain of Peroxisome proliferator-activated receptor alpha (Homo sapiens, UniProt Q07869, T279M) (Q07869 whole entry T279M): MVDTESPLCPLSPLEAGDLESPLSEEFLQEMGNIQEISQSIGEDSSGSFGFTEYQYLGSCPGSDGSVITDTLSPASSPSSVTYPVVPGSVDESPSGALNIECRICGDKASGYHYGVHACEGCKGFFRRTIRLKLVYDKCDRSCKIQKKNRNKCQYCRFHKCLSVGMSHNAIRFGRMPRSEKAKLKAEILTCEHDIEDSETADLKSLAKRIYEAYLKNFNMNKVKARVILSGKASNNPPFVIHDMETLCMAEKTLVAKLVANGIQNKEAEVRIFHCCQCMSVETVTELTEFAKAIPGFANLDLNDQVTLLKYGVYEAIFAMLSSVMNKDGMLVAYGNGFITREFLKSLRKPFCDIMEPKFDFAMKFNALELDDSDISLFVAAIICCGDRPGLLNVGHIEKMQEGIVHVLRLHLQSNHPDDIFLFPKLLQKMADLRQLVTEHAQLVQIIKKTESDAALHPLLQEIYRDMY
In assay [3] the target is Peroxisome proliferator-activated receptor alpha (Homo sapiens, UniProt Q07869, I272F). Description: Transcriptional activation activity on human I272F-mutant Peroxisome proliferator activated receptor alpha expressed in CHO-K1 cells.
Chain of Peroxisome proliferator-activated receptor alpha (Homo sapiens, UniProt Q07869, I272F) (Q07869 whole entry I272F, the tested form may be a part): as the sequence (Q07869 whole entry T279M) above, with I272F, M279T counted along it
The subject of assay [4] is Peroxisome proliferator-activated receptor alpha (Homo sapiens), Q07869 [UNDEFINED MUTATION]. Description: Ratio of transcriptional activation of I272F mutant compared to wild type PPAR-GAL4 chimeric receptors in CHO-K1 cells.
The test system is the same in assay [5]. Description: Ratio of transcriptional activation of T279M mutant compared to wild type PPAR-GAL4 chimeric receptors in CHO-K1 cells.
In assay [6] the test system is T2, Peroxisome proliferator-activated receptor alpha (Homo sapiens), Q07869 [I272F].
T2 sequence (whole entry): T1 sequence (Q07869 whole entry) with I272F
Kind of assay: Transcriptional activation activity on human I272F-mutant Peroxisome proliferator activated receptor alpha expressed in CHO-K1 cells at 10 uM.

Structures are written as SMILES. Numbering of substitutions follows the chain as printed.

Drawing on ChEMBL document CHEMBL1136221, “Analysis of the critical structural determinant(s) of species-selective peroxisome proliferator-activated receptor alpha (PPAR alpha)-activation by phenylpropanoic acid-type PPAR alpha agonists” (Bioorg Med Chem Lett, 2003), this text covers EC50, Ratio and inhibition for four compounds.

With `CC[C@@H](Cc1ccc(OC)c(C(=O)NCc2ccc(C(F)(F)F)cc2)c1)C(=O)O`, the EC50 came out at 0.0803 µM in assay [1], 0.309 µM in assay [2] and 2.82 µM in assay [3].

For `CC[C@@H](Cc1ccc(OC)c(OCCc2ccc(C(F)(F)F)cc2)c1)C(=O)O`, the EC50 in assay [1] is 2.72 µM; in assay [2], 16.1 µM; in assay [3], 33.4 µM. The Ratio in assay [4] was 12.3; in assay [5], 5.92.

As to `CC[C@@H](Cc1ccc(OC)c(C(=O)NCc2ccccc2)c1)C(=O)O`, the EC50 in assay [1] stood at 3.38 µM; in assay [2] it was 11.4 µM. Further, the Ratio in assay [5] is 3.37. The same compound returned an inhibition in assay [6] of 30%.

In the case of `CC[C@@H](Cc1ccc(OC)c(C(=O)NCc2ccc(Oc3ccc(F)cc3)cc2)c1)C(=O)O`, the figures for the EC50 in assay [1], in assay [2] and in assay [3] were 0.000615 µM, 0.014 µM and 0.667 µM, respectively. Also, the Ratio in assay [4] is 108; in assay [5], 2.28.
